Data taken from patent US20140243414A1, “PHARMACEUTICAL COMPOSITIONS OF CETP INHIBITORS” (Japan Tobacco Inc., priority 2003, published 2014).
Like-named read-outs stand apart in the source and are kept apart here.

Assays:
CETP [1] = target: T1, CETP (Homo sapiens, UniProt P11597); assay: CETP activity after 4 weeks daily treatment, healthy volunteers (Example 9); format: in vivo; conditions: for Absolute change in CETP activity: 4 weeks treatment, mean ± SD; for Decrease in CETP activity relative to baseline: 4 weeks
T1 construct: from tissue; host or cells: blood / plasma of human subjects dosed orally with Compound I
T1 sequence (P11597 18-493): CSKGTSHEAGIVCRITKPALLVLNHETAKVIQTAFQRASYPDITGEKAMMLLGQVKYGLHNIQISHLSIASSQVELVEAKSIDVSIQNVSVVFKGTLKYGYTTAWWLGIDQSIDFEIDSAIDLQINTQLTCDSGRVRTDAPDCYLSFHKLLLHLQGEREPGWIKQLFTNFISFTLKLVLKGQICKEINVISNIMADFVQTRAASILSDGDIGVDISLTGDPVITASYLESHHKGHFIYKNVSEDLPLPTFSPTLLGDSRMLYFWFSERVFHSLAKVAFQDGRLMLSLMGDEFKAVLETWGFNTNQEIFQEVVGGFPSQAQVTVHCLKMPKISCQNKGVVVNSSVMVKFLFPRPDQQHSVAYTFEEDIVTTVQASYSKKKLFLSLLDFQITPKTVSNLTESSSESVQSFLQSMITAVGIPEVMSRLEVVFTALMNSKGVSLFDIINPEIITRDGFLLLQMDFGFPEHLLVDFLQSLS
Method: (§1) Each patient took three tablets after breakfast each day for 4 weeks. Patients either took three placebo tablets (placebo); one 300 mg tablet and two placebo tablets (low dose); two 300 mg tablets and one placebo tablet (medium dose); or three 300 mg tablets (high dose). Tablet preparation was as described as in Example 1.
(§2) The testing period consisted of (a) a run-in period of 4 weeks, followed by (b) 4 weeks of treatment, and (c) 4 weeks of monitoring. Blood samples were drawn after an overnight fast. […] HDL-C was determined with a heparin MnCl2 precipitation reagent and LDL-C was calculated by the Friedewald formula (see, de Grooth et al., supra). CETP activity was measured as described in Example 5.
(§3) Table 11 describes the absolute changes in the assayed properties after 4 weeks of treatment.

TC, HDL-C, LDL-C = assay: Lipid levels after 4 weeks daily treatment, healthy volunteers (Example 9); format: in vivo, human; conditions: for Decrease in TC/HDL-C ratio relative to baseline / Increase in HDL-C levels relative to baseline: 4 weeks; for Absolute change in HDL-C / Absolute change in TC / Absolute change in TC/HDL-C ratio / Absolute change in LDL-C: 4 weeks treatment, mean ± SD; for Absolute change in LDL-C: LDL-C by Friedewald formula
Method: as §1, §2, §3

CETP [2] = target: T1, CETP; assay: Food effect on CETP activity, 900 mg Compound I, Caucasian males (Example 6); format: in vivo; conditions: for change in vivo at 900 mg: read-out: Percent change from pre-dose in CETP activity (mean)
Excerpt: Administration, dosing, and sampling schedules were substantially similar to those described in Example 1.
The procedure for determining CETP activity is described in Example 5.
The mean changes from baseline (pre-dose) in CETP activity over time are set out in the plot of FIG. 3.

CETP [3] = target: T1, CETP; assay: Food effect on relative CETP activity, 600 mg Compound I, Japanese males (Example 8); format: in vivo
Method: Administration, dosing, and sampling schedules were commensurate with those described in Examples 1 and 6. […] Patients were administered two tablets of 300 mg each. The tablets were prepared as described in Example 1.
Relative CETP activities (calculated as a percentage of baseline CETP activity) and standard deviations (SD) were measured, and the resulting data is summarized in Table 9.

[4] = Plasma pharmacokinetics of the active form of Compound I, single oral doses after standard breakfast, Japanese males (Example 3); format: in vivo, human; conditions: Examples 1-4
Method: Administration, dosing, and sampling schedules were commensurate with those described in Example 1. The tablets were prepared as described in Example 1.

Which results are given for `CCC(CC)CC1(C(=O)Nc2ccccc2SC(=O)C(C)C)CCCCC1` [Compound I, S-[2-([[1-(2-ethylbutyl)cyclohexyl]carbonyl]amino)phenyl]2-methylpropanethioate]?
Absolute change in CETP activity (CETP [1]; 300 mg per day after breakfast): −15.4 ± 11.9 % of control; Decrease in CETP activity relative to baseline (CETP [1]; 300 mg per day with food): about 17%; Absolute change in CETP activity (CETP [1]; 600 mg per day after breakfast): −29.6 ± 19.5 % of control; Decrease in CETP activity relative to baseline (CETP [1]; 600 mg per day with food): about 33%; Absolute change in CETP activity (CETP [1]; 900 mg per day after breakfast): −37.2 ± 17.6 % of control; Decrease in CETP activity relative to baseline (CETP [1]; 900 mg per day with food): about 39%; Decrease in TC/HDL-C ratio relative to baseline (TC, HDL-C, LDL-C; 300 mg per day): about 13%; Increase in HDL-C levels relative to baseline (TC, HDL-C, LDL-C; 300 mg per day): about 15%; Absolute change in HDL-C (TC, HDL-C, LDL-C; 300 mg per day): 0.18 ± 0.15 mmol/L; Absolute change in TC (TC, HDL-C, LDL-C; 300 mg per day): −0.1 ± 0.5^ mmol/L; Absolute change in TC/HDL-C ratio (TC, HDL-C, LDL-C; 300 mg per day): −0.7 ± 0.8; Absolute change in LDL-C (TC, HDL-C, LDL-C; 300 mg per day): −0.2 ± 0.5^ mmol/L; Decrease in TC/HDL-C ratio relative to baseline (TC, HDL-C, LDL-C; 600 mg per day): about 18%; Increase in HDL-C levels relative to baseline (TC, HDL-C, LDL-C; 600 mg per day): about 26%; Absolute change in HDL-C (TC, HDL-C, LDL-C; 600 mg per day): 0.32 ± 0.22 mmol/L; Absolute change in TC (TC, HDL-C, LDL-C; 600 mg per day): 0.0 ± 0.6 mmol/L; Absolute change in TC/HDL-C ratio (TC, HDL-C, LDL-C; 600 mg per day): −0.9 ± 0.8; Absolute change in LDL-C (TC, HDL-C, LDL-C; 600 mg per day): −0.2 ± 0.6^ mmol/L; Decrease in TC/HDL-C ratio relative to baseline (TC, HDL-C, LDL-C; 900 mg per day): about 23%; Increase in HDL-C levels relative to baseline (TC, HDL-C, LDL-C; 900 mg per day): about 34%; Absolute change in HDL-C (TC, HDL-C, LDL-C; 900 mg per day): 0.40 ± 0.29 mmol/L; Absolute change in TC (TC, HDL-C, LDL-C; 900 mg per day): 0.0 ± 0.6 mmol/L; Absolute change in TC/HDL-C ratio (TC, HDL-C, LDL-C; 900 mg per day): −1.2 ± 0.7; Absolute change in LDL-C (TC, HDL-C, LDL-C; 900 mg per day): -0.3 ± 0.6 mmol/L; change in vivo at 900 mg (CETP [2]; 1 h, fasted, 1 h): 1%; change in vivo at 900 mg (CETP [2]; 1 h, fed, 1 h): -1%; change in vivo at 900 mg (CETP [2]; 2 h, fasted, 2 h): 2%; change in vivo at 900 mg (CETP [2]; 2 h, fed, 2 h): -16%; change in vivo at 900 mg (CETP [2]; 4 h, fasted, 4 h): -4%; change in vivo at 900 mg (CETP [2]; 4 h, fed, 4 h): -44%; change in vivo at 900 mg (CETP [2]; 6 h, fasted, 6 h): -10%; change in vivo at 900 mg (CETP [2]; 6 h, fed, 6 h): -59%; change in vivo at 900 mg (CETP [2]; 8 h, fasted, 8 h): -15%; change in vivo at 900 mg (CETP [2]; 8 h, fed, 8 h): -58%; change in vivo at 900 mg (CETP [2]; 24 h, fasted, 24 h): -10%; change in vivo at 900 mg (CETP [2]; 24 h, fed, 24 h): -34%; CETP activity, Post-study (all subjects) (CETP [2]; all subjects (fed and fasted periods), post-study): 96; CETP activity relative to pre-dose (CETP [3]; fasted, 1 h): 102.1%; CETP activity relative to pre-dose (CETP [3]; fasted, 2 h): 99.6%; CETP activity relative to pre-dose (CETP [3]; fasted, 4 h): 96.5%; CETP activity relative to pre-dose (CETP [3]; fasted, 6 h): 89.5%; CETP activity relative to pre-dose (CETP [3]; fasted, 8 h): 87.8%; CETP activity relative to pre-dose (CETP [3]; fasted, 24 h): 92.6%; CETP activity relative to pre-dose (CETP [3]; fasted, post-study): 100.4%; CETP activity relative to pre-dose (CETP [3]; fed, 1 h): 100.4%; CETP activity relative to pre-dose (CETP [3]; fed, 2 h): 87.8%; CETP activity relative to pre-dose (CETP [3]; fed, 4 h): 52.6%; CETP activity relative to pre-dose (CETP [3]; fed, 6 h): 37.6%; CETP activity relative to pre-dose (CETP [3]; fed, 8 h): 39.1%; CETP activity relative to pre-dose (CETP [3]; fed, 24 h): 65.5%; CETP activity relative to pre-dose (CETP [3]; fed, post-study): 102.9%; Bioavailability (as indicated by Cmax, AUC0-tz, AUC0-∞) in Oriental (especially Japanese) humans as compared to Caucasian humans [4]: greater
